Experiments:
MC4R = target: T1, MC4R (Homo sapiens, UniProt P32245); experiment: Assay of MC4R antagonist activity in cells in vitro (cAMP assay, Melanotan I stimulation); assay type: cell-based; conditions: flipin-293-MC4 cell line, Melanotan I as agonist
T1 construct: expressed in transfected cells; host or cells: flipin-293-MC4 (Flp-In 293 host, hygromycin selection)
Protocol: Test Example 1: Assay of MC4R antagonist activity in cells in vitro
a. Experimental consumables:
b. Experimental steps • ✔ Cell line: flipin-293-MC4 • ✔ Cell culture medium: DMEM, 10% fetal bovine serum, 1 × PS, 200 µg/mL hygromycin • ✔ Experimental buffer: HBSS, 20 mM HEPES, 0.1% BSA, 500 µM IBMX • ✔ Positive compound: ML00253764 c. Antagonist detection • 1. Digested cells were suspended in the experimental buffer, and then inoculated into the 384-well cell culture plate. • 2. The to-be-detected compound was added to the cell plate, and incubated at 37°C for 10 min. • 3. Melanotan I was added to the cell plate, and incubated at 37°C for 30 min. • 4. Two detection reagents EU cAMP tracer and ulight anti camp were thawed and diluted with a lysis solution in the kit. • 5. The diluted detection reagents were added to the cell plate and incubated at room temperature for 1 h. • 6. Reading was carried out by Envision. (Excitation light: 340 nm, emission light: 615 nm and 665 nm) d. Data analysis • 1. %Inhibition calculation: %Inhibition = (Signalcmpd−SignalAve_VC)/(SignalAve_PC−SignalAve_VC) × 100. [formula] • Signalcmpd: compound signal value; • SignalAve_VC: negative control signal value; • SignalAve_PC: positive control signal value; • %inhibition: inhibition percentage. • 2. Calculation of IC50 of the compound using the nonlinear fitting equation in GraphPad: Y = Bottom + (Top−Bottom)/(1+10^(∧)((LogIC50−X)×HillSlope)) [formula] X: logarithmic value of the concentration of the compound; Y: inhibition percentage

[1] = Pharmacokinetic study on the tested compound in SD male rats; assay type: in vivo; conditions: IV 1 mpk/PO 2 mpk; for AUC / Cmax / clearance / half-life: Sprague-Dawley (SD), rat, plasma
Protocol: On the day of administration, the tested compound was prepared with 5% DMSO + 5% Solutol + 90% Saline as a solvent into a solution for administration for use.
The solution for administration was administered to an intravenous injection IV group at a dose of 1 mg/kg in a concentration of 0.2 mg/mL. The solution for administration was administered to an oral gavage PO group at a dose of 2 mg/kg in a concentration of 0.2 mg/mL. The animals in the PO group were required to fast overnight in advance, drink water freely, and be fed 4 hours after administration. The IV group was not required to fast.
The animals were weighed before administration. On the day of administration, the solution was IV/PO-administered once in an administration amount calculated based on the weight. In the IV group, blood was collected from veins at 0.083 h, 0.25 h, 0.5 h, 1.0 h, 2.0 h, 4.0 h, 8.0 h, and 24 h after administration. In the PO group, blood was collected from veins at 0.25 h, 0.5 h, 1.0 h, 2.0 h, 4.0 h, 6.0 h, 8.0 h, and 24 h after administration. The amount of blood collected was about 0.20 mL. K2-EDTA was used in blood collection tubes as an anticoagulant. The collected blood sample was centrifuged (centrifugation conditions: 6800 g, 6 min, 2°C to 8°C) within 1 h to obtain plasma. The to-be-tested sample was stored in a refrigerator at -80°C before analysis.
The concentration of the tested compound in the plasma of the SD male rats was detected by the validated LC-MS/MS method.

T1 sequence (P32245 whole entry): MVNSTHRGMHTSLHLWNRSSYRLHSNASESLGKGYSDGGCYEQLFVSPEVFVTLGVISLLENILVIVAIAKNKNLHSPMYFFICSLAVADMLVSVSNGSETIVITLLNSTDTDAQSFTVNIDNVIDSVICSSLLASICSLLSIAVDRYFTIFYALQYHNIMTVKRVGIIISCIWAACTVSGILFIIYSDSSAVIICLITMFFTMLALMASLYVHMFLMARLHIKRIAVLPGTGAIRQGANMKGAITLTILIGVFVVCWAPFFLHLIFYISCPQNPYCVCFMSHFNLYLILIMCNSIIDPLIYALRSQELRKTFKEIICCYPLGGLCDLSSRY

IC50 (MC4R) [nM] | F [1] [%] | AUC [1] [ng·h/mL] | Cmax [1] [ng/mL] | clearance [1] [mL/min/kg] | half-life [1] [min] | Compound
3.95 | 86.8 | 442 | 338 | 65.3 | 42.6 | COc1cc([C@@H](C)C(=O)N2CC[C@H](Nc3ccc(-c4ncccn4)c(C)n3)C2)c(F)cn1 [Compound 001-1, (R)-2-(5-fluoro-2-methoxypyridine-4-yl)-1-((S)-3-((6-methyl-5-(pyrimidine-2-yl)pyridine-2-yl)amino)pyrrolidine-1-yl)propan-1-one]
2.96 | 52.7 | 317 | 329 | 55.2 | 15 | COc1cc([C@@H](C)C(=O)N2C[C@H](C)[C@H](Nc3ccc(-c4ncccn4)c(C)n3)C2)c(F)cn1 [Compound 051-1, (R)-2-(5-fluoro-2-methoxypyridine-4-yl)-1-((3 S,4S)-3-methyl-4-(6-methyl-5-(pyrimidine-2-yl)pyridine-2-yl-amino)pyrrolidine-1-yl)propane-1-one]
2.3 | 33.8 | 179 | 157 | 62.5 | 15 | COc1cc([C@@H](C)C(=O)N2C[C@H](C)[C@H](Nc3ccc(-c4ncccn4)c(C)n3)C2)c(Cl)cn1 [Compound 112, (R)-2-(5-chloro-2-methoxypyridine-4-yl)-1-((3 S,4S)-3-methyl-4-(6-methyl-5-(pyrimidine-2-yl)pyridine-2-yl-amino)pyrrolidine-1-yl)propane-1-one]
1.59 |  |  |  |  |  | COc1cc([C@@H](C)C(=O)N2C[C@@H](Nc3ccc(-c4cn(C)c(C(C)(C)O)n4)c(C)n3)C3(CC3)C2)c(F)cn1 [Compound 181, (R)-2-(5-fluoro-2-methoxypyridine-4-yl)-1-((S)-7-((5-(2-(2-hydroxypropan-2-yl)-1-methyl-1H-imidazol-4-yl)-6-methylpyridine-2-yl)amino)-5-azaspiro[2.4]hept-5-yl)propan-1-one]
0.86 |  |  |  |  |  | COc1cc([C@@H](C)C(=O)N2C[C@@H](Nc3ccc(-c4cn(C)c(C(C)(C)O)n4)c(C)n3)C3(CC3)C2)c(Cl)cn1 [Compound 182, (R)-2-(5-chloro-2-methoxypyridine-4-yl)-1-((S)-7-((5-(2-(2-hydroxypropan-2-yl)-1-methyl-1H-imidazol-4-yl)-6-methylpyridine-2-yl)amino)-5-azaspiro[2.4]hept-5-yl)propan-1-one]
1.49 |  |  |  |  |  | COc1cc([C@@H](C)C(=O)N2C[C@@H](Nc3ccc(-c4cn(C)c(OC)n4)c(C)n3)C3(CC3)C2)c(Cl)cn1 [Compound 184, (R)-2-(5-chloro-2-methoxypyridine-4-yl)-1-((S)-7-((5-(2-methoxy-1-methyl-1H-imidazol-4-yl)-6-methylpyridine-2-yl)amino)-5-azaspiro[2.4]hept-5-yl)propan-1-one]
0.55 |  |  |  |  |  | COc1cc([C@@H](C)C(=O)N2C[C@@H](Nc3ccc(-c4cn(C)c(OC(F)F)n4)c(C)n3)C3(CC3)C2)c(Cl)cn1 [Compound 186, (R)-2-(5-chloro-2-methoxypyridine-4-yl)-1-((S)-7-((5-(2-(difluoromethoxy)-1-methyl-1H-imidazol-4-yl)-6-methylpyridine-2-yl)amino)-5-azaspiro[2.4]hept-5-yl)propan-1-one]
2.11 |  |  |  |  |  | COc1cc([C@@H](C)C(=O)N2C[C@@H](Nc3ccc(-c4cn5c(n4)CCC5)c(C)n3)C3(CC3)C2)c(Cl)cn1 [Compound 188, (R)-2-(5-chloro-2-methoxypyridine-4-yl)-1-((S)-7-((5-(6,7-dihydro-5H-pyrrolo[1,2-a]imidazol-2-yl)-6-methylpyridine-2-yl)amino)-5-azaspiro[2.4]hept-5-yl)propan-1-one]
2.25 |  |  |  |  |  | COc1cc([C@@H](C)C(=O)N2C[C@@H](Nc3ccc(-c4cn5c(n4)C(F)(F)CC5)c(C)n3)C3(CC3)C2)c(F)cn1 [Compound 189, (R)-1-((S)-7-((5-(7,7-difluoro-6,7-dihydro-5H-pyrrolo[1,2-a]imidazol-2-yl)-6-methylpyridine-2-yl)amino)-5-azaspiro[2.4]hept-5-yl)-2-(5-fluoro-2-methoxypyridine-4-yl)propan-1-one]
1.1 |  |  |  |  |  | COc1cc([C@@H](C)C(=O)N2C[C@@H](Nc3ccc(-c4cn5c(n4)C(F)(F)CC5)c(C)n3)C3(CC3)C2)c(Cl)cn1 [Compound 190, (R)-2-(5-chloro-2-methoxypyridine-4-yl)-1-((S)-7-((5-(7,7-difluoro-6,7-dihydro-5H-pyrrolo[1,2-a]imidazol-2-yl)-6-methylpyridine-2-yl)amino)-5-azaspiro[2.4]hept-5-yl)propan-1-one]
0.99 |  |  |  |  |  | COc1cc([C@@H](C)C(=O)N2CC[C@H](Nc3ccc(-c4cn(C)nn4)c(C)n3)C2)c(Cl)cn1 [Compound 195, (R)-2-(5-chloro-2-methoxypyridine-4-yl)-1-((S)-3-((6-methyl-5-(1-methyl-1H-1,2,3-triazol-4-yl)pyridine-2-yl)amino)pyrrolidine-1-yl)propan-1-one]
4.9 |  |  |  |  |  | COc1cc([C@@H](C)C(=O)N2C[C@@H](C)[C@H](Nc3ccc(-c4ncccn4)c(C)n3)C2)c(Cl)cn1 [Compound 198, (R)-2-(5-chloro-2-methoxypyridine-4-yl)-1-((3R,4S)-3-methyl-4-((6-methyl-5-(pyrimidine-2-yl)pyridine-2-yl)amino)pyrrolidine-1-yl)propan-1-one]
366 |  |  |  |  |  | COc1cc([C@@H](C)C(=O)N2C[C@@H](Nc3ccc(-c4ncccn4)c(C)n3)C(C)(C)C2)c(Cl)cn1 [Compound 199, (R)-2-(5-chloro-2-methoxypyridine-4-yl)-1-((S)-3,3-dimethyl-4-((6-methyl-5-(pyrimidine-2-yl)pyridine-2-yl)amino)pyrrolidine-1-yl)propan-1-one]

Compound | IC50 (MC4R) [nM] | F [1] [%] | AUC [1] [ng·h/mL] | Cmax [1] [ng/mL] | clearance [1] [mL/min/kg] | half-life [1] [min]
COc1cc([C@@H](C)C(=O)N2C[C@@H](Nc3ccc(-c4ncccn4)c(C)n3)C3(CC3)C2)c(F)cn1 [Compound 056-1, (2R)-2-(5-fluoro-2-methoxypyridine-4-yl)-1-[(7S)-7-{[6-methyl-5-(pyrimidine-2-yl)pyridine-2-yl]amino}-5-azaspiro[2.4]heptane-5-yl]propan-1-one] | 4.23 | 61.5 | 566 | 380 | 35.8 | 53.4
COc1cc([C@@H](C)C(=O)N2C[C@@H](Nc3ccc(-c4cn(C)nn4)c(C)n3)C3(CC3)C2)c(Cl)cn1 [Compound 165, (R)-2-(5-chloro-2-methoxypyridine-4-yl)-1-((S)-7-((6-methyl-5-(1-methyl-1H-1,2,3-triazol-4-yl)pyridine-2-yl)amino)-5-azaspiro[2.4]hept-5-yl)propan-1-one] | 2.86 | 56.0 | 858 | 577 | 22.3 | 39
COc1cc([C@@H](C)C(=O)N2C[C@@H](Nc3ccc(-c4cn5c(n4)CCC5)c(C)n3)C3(CC3)C2)c(F)cn1 [Compound 187, (R)-1-((S)-7-((5-(6,7-dihydro-5H-pyrrolo[1,2-a]imidazol-2-yl)-6-methylpyridine-2-yl)amino)-5-azaspiro[2.4]hept-5-yl)-2-(S-fluoro-2-methoxypyridine-4-yl)propan-1-one] | 3.42 |  |  |  |  | 
COc1cc([C@@H](C)C(=O)N2C[C@@H](Nc3ccc(-c4cn(C(F)F)nn4)c(C)n3)C3(CC3)C2)c(Cl)cn1 [Compound 196, (R)-2-(5-chloro-2-methoxypyridine-4-yl)-1-((S)-7-((S-(1-(difluoromethyl)-1H-1,2,3-triazol-4-yl)-6-methylpyridine-2-yl)amino)-5-azaspiro[2.4]hept-5-yl)propan-1-one] | 4.88 |  |  |  |  | 

From patent publication EP4620955A1, “MC4R ANTAGONIST COMPOUND, PHARMACEUTICAL COMPOSITION AND PHARMACEUTICAL USE THEREOF” (Changchun Genescience Pharmaceutical Co., Ltd., priority 2022, dated 2024)
